Laboratory results published in article PMC11956017, “Design of Benzyl-triazolopyrimidine-Based NADPH Oxidase Inhibitors Leads to the Discovery of a Potent Dual Covalent NOX2/MAOB Inhibitor” (Journal of Medicinal Chemistry, 2025).
Entries after “also recorded” stand apart in the source; their conditions may differ. Marks after values point to notes of the source that are not given here.

What was measured:
[1] = test system: NOX1; conditions: cited from earlier work
[2] = test system: NOX4; conditions: cited from earlier work
[3] = test system: NOX5; conditions: cited from earlier work
[4] = biological target: NOX2 (Homo sapiens, UniProt P04839); parameters: NOX2 was expressed as native protein in X-CGD PLB-985 cells transduced with the RD114 pseudotyped MFGS-NOX2 vector; expressed in transfected cells; host or cells: X-CGD PLB-985 cells transduced with MFGS-NOX2; isolated membranes; Cytosolic proteins made in E. coli; conditions: cited from earlier work
[5] = test system: BV2 cells; experiment: ROS detection with CellROX Deep Red in BV2 cells; assay type: cell-based, murine; conditions: 10 μM, LPS/IFN-γ stimulation, 48 h
Experimental: BV2 murine microglial cells were cultured in DMEM supplemented with 10% heat-inactivated FBS, 100 IU/mL penicillin G, […] streptomycin, and […] amphotericin B and grown at 37 °C in 5% CO2 and a humidified atmosphere. […] After 30 min, LPS 100 ng/mL and IFN-γ 20 ng/mL were added to the medium for an additional 48 h. After treatment, BV2 cells were incubated with a CellROX Deep Red reagent (cat. no. C10422) at 5 μM and incubated for 30 min at 37 °C as indicated by the manufacturer protocol. ROS levels were measured by a spectrofluorometer, taking as 100% the median fluorescence intensity of cells treated with the vehicle.

[6] = test system: BV2 cells; experiment: MTT viability assay in BV2 cells; assay type: cell-based, murine; conditions: 10 μM, LPS/IFN-γ stimulation, 48 h
Experimental: BV2 murine microglial cells were cultured in DMEM supplemented with 10% heat-inactivated FBS, 100 IU/mL penicillin G, 100 mg/mL streptomycin, and 2.5 mg/mL amphotericin B and grown at 37 °C in 5% CO2 and a humidified atmosphere. […] After 30 min, LPS 100 ng/mL and IFN-γ 20 ng/mL were added to the medium for an additional 48 h.
Cell viability was determined by the MTT assay. Briefly, MTT (dissolved in PBS with a final concentration of 0.5 mg/mL) was added to the medium culture. After 2 h of incubation, the cells were mixed with DMSO and shaken for 10 min. Finally, the absorption of the samples was read by regulating the 570 nm filter as the main wavelength and the 630 nm filter as the referenced wavelength. The blank was subtracted from all samples to obtain pure cellular absorption. Results are expressed as the percentage of cell survival, taking 100% of the cells treated with the vehicle.

[7] = test system: Purified MAOA; conditions: read-out: IC50 Purified MAOA; cited from earlier work
[8] = test system: Purified MAOB; conditions: read-out: IC50 Purified MAOB; cited from earlier work
[9] = biological target: T1, human MAOA (Homo sapiens, UniProt P21397); experiment: Purified MAOA, Amplex Red/horseradish peroxidase coupled assay; assay type: biochemical; conditions: 70 nM MAOA, 1 mM kynuramine
T1 construct: made in house; host or cells: Pichia pastoris
T1 sequence (P21397 1-527): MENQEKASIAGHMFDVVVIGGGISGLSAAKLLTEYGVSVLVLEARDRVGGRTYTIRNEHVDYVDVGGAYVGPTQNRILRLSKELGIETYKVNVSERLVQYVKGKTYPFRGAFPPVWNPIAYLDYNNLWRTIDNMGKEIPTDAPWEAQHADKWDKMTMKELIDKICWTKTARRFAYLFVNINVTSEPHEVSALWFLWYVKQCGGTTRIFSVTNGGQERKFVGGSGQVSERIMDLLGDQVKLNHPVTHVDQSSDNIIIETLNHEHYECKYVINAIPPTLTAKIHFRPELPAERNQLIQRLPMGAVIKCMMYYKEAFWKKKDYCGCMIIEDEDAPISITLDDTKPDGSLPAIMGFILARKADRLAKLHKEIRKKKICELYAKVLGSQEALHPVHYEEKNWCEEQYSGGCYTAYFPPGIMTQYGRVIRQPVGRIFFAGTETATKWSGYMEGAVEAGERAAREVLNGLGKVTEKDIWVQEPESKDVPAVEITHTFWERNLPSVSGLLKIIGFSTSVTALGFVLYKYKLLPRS
Experimental: (§1) IC50 values on human MAOA and human MAOB were determined using the Amplex Red/horseradish peroxidase coupled assay. […] Measurements were performed using a ClarioStar plate reader (excitation 572 nm and emission 583 nm) (BMG Labtech). IC50 values were obtained by fitting the percentage of inhibition versus log(inhibitor concentration) using GraphPad software 7.0. The covalent modification of the flavin upon the reaction with the propargylamine-containing inhibitors was monitored spectrophotometrically using a diode array UV/visible spectrophotometer (Agilent Technologies). […] The cofactor covalent modification was monitored over time following the shift of the enzyme-bound flavin (peaks at 370 and 456 nm) to 410 nm (ε410 = 23,500 M^–1 cm^–1) (Figure S10).

[10] = biological target: T2, human MAOB (Homo sapiens, UniProt P27338); experiment: Purified MAOB, Amplex Red/horseradish peroxidase coupled assay; assay type: biochemical; conditions: 10 nM MAOB, 1 mM benzylamine
T2 construct: made in house; host or cells: Pichia pastoris
T2 sequence (P27338 1-520): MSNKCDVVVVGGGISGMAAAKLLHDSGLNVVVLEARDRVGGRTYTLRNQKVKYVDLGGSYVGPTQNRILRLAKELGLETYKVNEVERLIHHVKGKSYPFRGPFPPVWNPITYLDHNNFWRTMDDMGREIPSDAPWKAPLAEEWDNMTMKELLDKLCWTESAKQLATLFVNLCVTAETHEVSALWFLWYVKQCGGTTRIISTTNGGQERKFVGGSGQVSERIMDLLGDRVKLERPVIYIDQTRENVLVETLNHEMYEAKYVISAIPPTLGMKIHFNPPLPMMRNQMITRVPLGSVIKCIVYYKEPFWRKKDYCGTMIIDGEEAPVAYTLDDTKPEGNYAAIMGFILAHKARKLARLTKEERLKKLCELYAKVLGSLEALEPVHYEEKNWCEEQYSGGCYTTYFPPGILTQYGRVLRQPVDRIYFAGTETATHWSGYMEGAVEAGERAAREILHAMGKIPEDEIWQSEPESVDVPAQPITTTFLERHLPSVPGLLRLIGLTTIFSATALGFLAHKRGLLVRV
Experimental: as §1

[11] = test system: BV2 cells; experiment: qRT-PCR of iNOS, IL-1β and IL-6 transcripts in BV2 cells; assay type: cell-based, murine; conditions: cells pre-stimulated with LPS/IFN-γ for 24h, then 10 µM compound for 24 h
Experimental: BV2 murine microglial cells were cultured in DMEM supplemented with 10% heat-inactivated FBS, 100 IU/mL penicillin G, […] streptomycin, and […] amphotericin B and grown at 37 °C in 5% CO2 and a humidified atmosphere. […]
BV2 cells were lysed in a Trizol reagent for isolation of RNA. A reverse transcription reaction was performed in a thermocycler (MJMini personal thermal cycler; Biorad) using an IScript Reverse Transcription Supermix (Biorad) according to the manufacturer’s protocol, under the following conditions: incubation at 25 ° C for 5 min, reverse transcription at 42 ° C for 30 min, and inactivation at 85 ° C for 5 min. Real-time PCR (rtPCR) was carried out in an I-Cycler IQ Multicolor rtPCR detection system (Biorad) using a SsoFast EvaGreen Supermix (Biorad) according to the manufacturer’s instructions. The PCR protocol consisted of 40 cycles of denaturation at 95 ° C for 30 s and annealing/extension at 60 ° C for 30 s. For quantification analysis, the comparative threshold cycle (Ct) method was used. The Ct values from each gene were normalized to the Ct value of GAPDH in the same RNA samples. Relative quantification was performed using the 2^–ΔΔCt method (Schmittgen and Livak, 2008) and expressed as a fold change in arbitrary values. Primers used are as follows: • iNOS fw: […]; rev: […]. • IL-1β fw: […]; rev: […]. • IL-6 fw: […]; rev: […].

[12] = test system: monocytic U937; parameters: method as in PMID 37884805; conditions: cited from earlier work
[13] = test system: dehydrogenase domain of csNOX5; experiment: NADPH depletion assay on csNOX5 dehydrogenase domain; assay type: biochemical, Cylindrospermum stagnale; conditions: 100 μM inhibitor; 1 μM purified protein, 250 μM NADPH

**Q.** With `c1ccc(Cn2nnc3c(Sc4ncco4)ncnc32)cc1` [VAS3947] as the compound, how does the IC50 [1] read?
**A.** The IC50 was 86.8 µM.

**Q.** What about the IC50 [2] of the same compound?
**A.** Its IC50 is 30.5 µM.

**Q.** What about the IC50 [3] of the same compound?
**A.** Its IC50 is 39.2 µM.

**Q.** What about the IC50 [4] of the same compound?
**A.** The IC50 was 5.6 µM.

**Q.** For `C#CCN[C@@H]1CCc2ccccc21` [Rasagiline, reference compound], which “ROS levels in BV2 cells” value [5] is on record?
**A.** Its value is “decrease the ROS levels”.

**Q.** And the BV2 cell viability [6]?
**A.** The BV2 cell viability was “negligible effects on cells viability”.

**Q.** What about the IC50 [7] of the same compound?
**A.** Its IC50 is 0.7 µM.

**Q.** And the IC50 [8]?
**A.** Its IC50 is 0.014 µM.

**Q.** With `c1ccc(Cn2nnc3c(Sc4nc5ccccc5o4)ncnc32)cc1` [VAS2870, 3-benzyl-7-(2-benzoxazolyl)thio-1,2,3-triazolo[4,5-d]pyrimidine, reference compound] as the compound, how does the IC50 [9] read?
**A.** Its IC50 is over 100 µM.

**Q.** And the “IC50 Purified MAOA” value [9]?
**A.** Its value is “ineffective; also recorded: Not detected”.

**Q.** And the IC50 [10]?
**A.** The IC50 was over 100 µM.

**Q.** What about the “IC50 Purified MAOB” value [10] of the same compound?
**A.** The value was “ineffective; also recorded: Not detected”.

**Q.** What about the “ROS levels in BV2 cells” value [5] of the same compound?
**A.** The value was “decrease the ROS levels”.

**Q.** What about the “effects on iNOS, IL-1β and IL-6 mRNA without inhibitor pretreatment” value [11] of the same compound?
**A.** Its value is “negligible”.

**Q.** For `O=C1c2ccccc2-c2cc(N3CCC4(CC3)OCCO4)nc3cccc1c23` [Compound M41], which “viability of monocytic U937 and other myeloid cancer lines” value [12] is on record?
**A.** The value was “reduced the viability”.

**Q.** With `Clc1ncnc2c1nnn2Cc1ccccc1` [Compound 3, 3-Benzyl-7-chloro-3H-[1,2,3]triazolo[4,5-d]pyrimidine] as the compound, how does the “% INHIBITION csNOX5 DEHYDROGENASE DOMAIN” value [13] read?
**A.** Its value is 23.4 ± 4.8^b %.

**Q.** For `c1ccc(-c2cc(NC3CCNCC3)nc3ccccc23)cc1` [MC4876], which “viability of monocytic U937 and other myeloid cancer lines” value [12] is on record?
**A.** Its value is “reduced the viability”.
